Experimental data from PMC11356571, “The Comparative Metabolism of a Novel Hepatocellular Carcinoma Therapeutic Agent, 2,3-Diamino-N-(4-(benzo[d]thiazol-2-yl)phenyl)propanamide, in Human and Animal Hepatocytes” (Metabolites, 2024).

Assays:
Assay type in all cases: in vitro ADME
human hepatocytes = assay: Metabolite characterization in human hepatocytes; conditions: human hepatocyte 1 h incubates of ETN101; ND:<1.2E+05 peak area
Description: We mixed 60 μL aliquots of 40 μM ETN101 in incubation medium and an equal volume of human, mouse, rat, dog, or monkey hepatocyte suspension in 96-well plates and incubated for 0 or 1 h in a CO2 incubator at 37 °C. The reactions were quenched by adding 120 µL of ice-cold acetonitrile to each well, and the cell suspension was sonicated for 5 min at 4 °C. Subsequently, centrifugation was carried out at 15,000× g for 10 min at 4 °C. Next, the supernatants were evaporated to dryness using a vacuum concentrator, and residues were re-dissolved in 70 μL of 30% acetonitrile. Each sample (5 μL aliquots) was analyzed using LC–HRMS system.
For metabolite characterization, a Vanquish HPLC system (Thermo Fisher Scientific, San José, CA, USA) coupled with a Q-Exactive Orbitrap mass spectrometer (Thermo Fisher Scientific Inc., Waltham, MA, USA) was used at Core Research Support Center for Natural Products and Medical Materials at Yeungnam University. […] The eluent from the column was directly injected into the mass spectrometer using a heated electrospray ionization (HESI) source in positive ionization mode. […] The spray voltage was 3.0 kV and the capillary temperature was 320 °C. Full scan MS^1 with a data-dependent MS^2 acquisition mode was applied to obtain MS^1 scan data ranging from m/z 80 to 900, at a resolution of 70,000, whereas data-dependent MS^2 spectra were acquired for the five most abundant peaks per cycle at a resolution of 35,000. The parallel reaction monitoring (PRM) mode was used to obtain the MS^2 spectra of putative metabolites detected at low peak intensities in the data-dependent MS^2 acquisition mode. Data were collected and interpreted using Thermo Scientific Xcalibur™ Software (Thermo Fisher Scientific).

CYP2C19 = target: T1, CYP2C19 (Homo sapiens, UniProt P33261); assay: Incubation with human cDNA-expressed CYP2C19; conditions: CYP2C19, 30 min at 37 °C with NADPH; ETN101 10 μM or M1 1 μM
T1 construct: purchased Cypex Ltd. (Dundee, UK)
T1 sequence (P33261 whole entry): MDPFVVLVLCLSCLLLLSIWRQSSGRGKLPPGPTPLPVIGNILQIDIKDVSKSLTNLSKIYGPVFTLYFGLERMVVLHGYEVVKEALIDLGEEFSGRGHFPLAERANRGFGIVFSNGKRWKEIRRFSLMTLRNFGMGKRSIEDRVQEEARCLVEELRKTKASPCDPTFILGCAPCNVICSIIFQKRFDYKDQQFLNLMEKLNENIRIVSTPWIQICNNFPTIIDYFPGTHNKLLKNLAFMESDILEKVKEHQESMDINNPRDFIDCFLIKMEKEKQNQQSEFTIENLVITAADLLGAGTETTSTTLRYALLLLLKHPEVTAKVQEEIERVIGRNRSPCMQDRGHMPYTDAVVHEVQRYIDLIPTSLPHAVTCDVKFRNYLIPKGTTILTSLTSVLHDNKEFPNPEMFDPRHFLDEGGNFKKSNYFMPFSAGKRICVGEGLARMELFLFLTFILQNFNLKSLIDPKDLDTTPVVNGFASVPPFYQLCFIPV
Description: ETN101 or M1 was incubated with nine human cDNA-expressed CYP enzymes (1A2, 2A6, 2B6, 2C8, 2C9, 2C19, 2D6, 2E1, and 3A4) to identify the CYPs involved in the metabolism of ETN101. Based on the preliminary study, the incubation conditions were determined as follows: Briefly, reaction mixtures of 50 μL containing ETN101 (final concentration: 10 μM) or M1 (final concentration: 1 μM), and CYPs (final amount: 5 pmol for CYP1A2, 2A6, 2C8, 2C9, 2C19, 2D6, and 3A4; 10 pmol for CYP2B6 and 2E1) were prepared in 0.1 M potassium phosphate buffer. The reaction was initiated by adding 50 μL of NADPH- regenerating system; the mixtures were incubated for 0 min or 30 min at 37 °C in triplicate. Reactions were terminated by the addition of 100 μL of ice-cold acetonitrile containing the IS (camptothecin, 200 ng/mL). Samples were centrifuged at 13,000 rpm for 5 min at 4 °C. An aliquot of 2 μL supernatant was injected in LC–MS/MS system.
(§1) For enzyme characterization, an Agilent 6460 triple quadrupole mass spectrometer coupled with a 1260 HPLC system (Agilent Technologies, Santa Clara, CA, USA) and a Kinetex Halo® C18 column (2.7 μm, 2.1 × 50 mm, Advanced Material Technology, Wilmington, DE, USA) were used for chromatographic separation. […] ETN101, M1, and M2 were detected via MRM using ESI in the positive mode. […]

CES1c = target: T2, CES1c (Homo sapiens, UniProt P23141); assay: Incubation with human recombinant CES1c; conditions: 60 min at 37 °C, ETN101 10 μM or M1 1 μM
T2 construct: purchased Corning Life Sciences (Woburn, MA, USA)
T2 sequence (P23141 18-566 isoform P23141-3 limits assumed): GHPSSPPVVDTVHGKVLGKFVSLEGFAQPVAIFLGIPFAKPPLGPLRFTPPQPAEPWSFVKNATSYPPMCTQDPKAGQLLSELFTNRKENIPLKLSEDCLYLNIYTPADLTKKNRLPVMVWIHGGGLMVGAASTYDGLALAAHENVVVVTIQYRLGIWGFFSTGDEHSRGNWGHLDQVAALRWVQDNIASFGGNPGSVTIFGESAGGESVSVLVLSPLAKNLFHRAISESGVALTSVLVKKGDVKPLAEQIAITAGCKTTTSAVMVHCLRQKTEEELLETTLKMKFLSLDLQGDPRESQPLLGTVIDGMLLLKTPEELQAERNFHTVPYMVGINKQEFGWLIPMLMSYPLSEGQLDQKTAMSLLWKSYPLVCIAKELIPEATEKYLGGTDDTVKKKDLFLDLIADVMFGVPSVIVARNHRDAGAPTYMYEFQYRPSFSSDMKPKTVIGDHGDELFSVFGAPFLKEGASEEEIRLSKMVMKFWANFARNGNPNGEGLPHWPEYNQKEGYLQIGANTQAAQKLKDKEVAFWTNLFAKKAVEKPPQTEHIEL
Description: To screen for CES enzymes responsible for the hydrolysis of ETN101 or M1, 50 μL of reaction mixtures containing human cDNA-expressed CES enzymes (CES1b, CES1c, and CES2) at the concentration of 1 mg/mL, 10 μM ETN101, or 1 μM M1 in 0.1 M potassium phosphate buffer were incubated at 37 °C for 0 min or 60 min in triplicate. The reactions were quenched by adding 50 μL of ice-cold acetonitrile containing the internal standard (camptothecin, 10 μg/mL). Following centrifugation at 13,000 rpm for 5 min, a 2 μL aliquot of the supernatant was injected into the LC-MS/MS system. The reliability of the analysis was confirmed by incorporating three different levels of quality control samples at the beginning and end of each analytical batch.
as §1, with “separation. The mobile phases comprised 0.1% (v/v) formic acid in water (mobile phase A) and 0.1% formic acid (v/v) in acetonitrile (mobile phase B).” for “separation.”

NCC(N)C(=O)Nc1ccc(-c2nc3ccccc3s2)cc1 (stereo not drawn) [ETN101, 2,3-diamino-N-(4-(benzo[d]thiazol-2-yl)phenyl)propanamide]
Relative peak area (%) (human hepatocytes): 76.4%
Percentage remaining (CYP2C19): 113.0%
Percentage remaining (CES1c): 107.3%

Nc1ccc(-c2nc3ccccc3s2)cc1 [M1, 2-(4-aminophenyl)benzothiazole]
Relative peak area (%) (human hepatocytes): 21.0%
Percentage remaining (CYP2C19): 68.7%
Percentage remaining (CES1c): 122.7%
